Measurements reported in patent publication US7332495B2 (priority 2002, dated 2008).
Marks after values point to notes of the source that are not given here.

Key:
Kunming mice = experiment: Mice writhing model (acetic acid); assay type: in vivo; conditions: Mus musculus, po; Mice; Acetic acid Writhing; read-out: Analgesia ED50
Experimental: Kunming mice were used, with a male-female ratio of 50-50%. The test compound is administered i.p. (20 mg/Kg body weight) to the test groups, and physiological saline is administered P.O. (20 ml/Kg body weight) to the control group. After 30 minutes, acetic acid (0.7%, […] i.p.) was injected and the number of writhes was observed during a 5-minute period after acetic acid administration. The inhibition ratio of the writhing threshold was calculated. The alternating current tube is used to record the spontaneous activities for measuring sedation.
(§1) Two species of animals (mice and rats) and four types of pain testing models (i.p. 0.7% acetic acid, s.c. 5% formalin, hot plate 55° C., focused radiant heat) were used.

rat [1] = experiment: animal or person; conditions: Rattus norvegicus, po, read-out: Analgesia ED50
Experimental: Using 55° C. hot plate pain threshold detector (available from Ninghai Baishi Electronic Medical Instrument Co., Zheijiang, China) the threshold change before and after administration of a pharmaceutical composition of the present invention is tested. […] hind paw was scrubbed with alcohol cotton ball before the experiment. The regular pain threshold was tested twice for each rat, the induced hind paw licking time being recorded as the pain threshold. Measurements were made at 20-30 minute intervals. Only rats with stable pain reaction were used in the pharmaceutical test.
as §1

Mice [2] = experiment: Mice 55° C. hot plate; assay type: in vivo; conditions: Mus musculus, po, read-out: Analgesia ED50
Experimental: as §1

Mice [3] = experiment: Jumping test in mice (Narcan precipitated); assay type: in vivo; conditions: Morphine group
Experimental: Sixty-four mice were divided into 4 groups (16 for each group, ? fifty-fifty) Morphine, IV-12-1 (75 mg/Kg) IV-12-2 (100 mg/Kg) and saline were administrated respectively 3 times per day for 7 days with progressive dose increase. On the 7th day, Narcan is injected (i.p. 2 mg/kg) to precipitate withdrawal. The number of times for the mice to jump was recorded and the incidence of the jump calculated.

rats [4] = experiment: Precipitated withdrawal test in rats; assay type: in vivo; conditions: Morphine group
Experimental: 48 rats were divided into 4 groups (12 for each group, ? fifty-fifty). Morphines IV-12-1 (75 mg/Kg), IV-12-2 (100 mg/Kg) and saline, was administered respectively using progressive dose increase for 14 days and 3 times per day. On the 15th day, Narcan is injected (i.p. 4 mg/kg) to precipitate withdrawal. The withdrawal syndrome was observed and the rats wre weighed at 30, 60 and 120 minutes after the injection respectively.

rats [5] = experiment: Spontaneous withdrawal tests (body weight); assay type: in vivo; conditions: Morphine group
Experimental: 96 mice were divided into 4 groups (24 for each group, ? fifty-fifty), and Morphine, IV-12-1, IV-12-2, warm boiled water were administered respectively, using progressive dose increase for 7 days (i.g.) and 2 times per day. The weight of the rats after drug withdrawal was compared with the weight one day before drug withdrawal at a corresponding time (See Table 9 and 10).

rats [6] = experiment: Conditional position preference in rats; conditions: Morphine group, i.g.
From the text: A commercially available device for testing (Med Associates Inc.) was used. Measurements were automatically recorded by a computer.
The data are indicated by means of […], t-test was employed to compare the data in different groups. The rats were divided randomly into groups by weight, 12 for each group. They were positive control groups. […] The experiments were divided into stages of accommodation, training and test. Accommodation: Open the doors between black box and grey box and the door between white box and grey box. put the rats in from the grey box; let them run free in the training box for 15 minutes for 4 days. Training: The white box is with medicine while the black one is without it. The period training is 10 days, the first day with the medicine while the second day not; the third day with the medicine while the fourth day not, so on and so forth. When carrying out the training with medicine, 15 minutes after the rat is administrated (i.g.) with medicine, it is put into the white box for 30 minutes. When the training is without medicine, 15 minutes after the rat is administrated (i.g.) with saline, it is put into the black box for 30 minutes. Test: On the 11th day, the rat is put into the training box, with the door open. The time the rat stays in each box, and the number of time it enters during 15 minutes were determined, and the percentage of the time staying in the white box to the time together in white box and black box is calculated (Table 12).

rat [7] = experiment: Rat tail flick model (focused radiant heat); assay type: in vivo; conditions: po, read-out: Analgesia ED50
rats [8] = experiment: Spontaneous withdrawal tests (body weight); assay type: in vivo; conditions: Morphine group; remark: listed apart in the source
rat [9] = experiment: Rat 5% formalin paw s.c.; assay type: in vivo; conditions: p.o., read-out: Analgesia ED50
Experimental: as §1

Compound `CN1CC[C@]23c4c5ccc(O)c4O[C@H]2[C@@H](O)C=C[C@H]3[C@H]1C5` [Morphine, reference compound] has an ED50 (Kunming mice) of 6.8 mg/kg, an ED50 (rat [1]) of 107 mg/kg and an ED50 (Mice [2]) of 7.7 mg/kg. The “Incidence for jump (%)” value (Mice [3]) was 87.5* %, the “Times for jump (IV ± SD)” value (Mice [3]; 3 times per day for 7 days, Narcan i.p. 2 mg/kg) was 68 ± 43 and the “Percent of the lost weight (IV ± SD)” value (rats [4]; 30 min after Narcan) was −5.1 ± 0.7. The “Percent of the lost weight (IV ± SD)” value (rats [4]; 60 min after Narcan) was −5.9 ± 1.0, the “Percent of the lost weight (IV ± SD)” value (rats [4]; 120 min after Narcan) was −7.0 ± 0.7 and the “Abstinence syndrome (IV ± SD)” value (rats [4]; 14 days, Narcan i.p. 4 mg/kg) was 9.2 ± 2.8. The “Increase (%) of weight” value (rats [5]; 114 h after withdrawal) was −4.7%, the “Weight” value (rats [5]; 144 h after withdrawal) was 282.0 ± 41 g and the “Weight after withdrawal compared with weight one day before withdrawal” value (rats [5]; ♀, 114 h after withdrawal) was 0.97 ± 0.03. The “Weight after withdrawal compared with weight one day before withdrawal” value (rats [5]; ♂, 18 h after withdrawal) was 0.97 ± 0.04, the “Percent in the medicine box (%)” value (rats [6]) was 62.0 ± 8.0 % and the ED50 (rat [7]) was 23.3 mg/kg. The “Greatest decrease of weight after drug withdrawal” value (rats [8]) was 10%, the “Increase (%) of weight” value (rats [8]; 12 h after withdrawal) was −0.5% and the “Weight” value (rats [8]; 12 h after withdrawal) was 284.7 ± 40 g. For the same compound, the “Increase (%) of weight” value (rats [8]; 18 h after withdrawal) was −3.2%, the “Weight” value (rats [8]; 18 h after withdrawal) was 276.9 ± 39 g and the “Increase (%) of weight” value (rats [8]; 24 h after withdrawal) was −6.4%. The “Weight” value (rats [8]; 24 h after withdrawal) was 267.9 ± 37 g, the “Increase (%) of weight” value (rats [8]; 36 h after withdrawal) was −8.2% and the “Weight” value (rats [8]; 36 h after withdrawal) was 262.7 ± 37 g. The “Increase (%) of weight” value (rats [8]; 42 h after withdrawal) was −9.7%, the “Weight” value (rats [8]; 42 h after withdrawal) was 258.4 ± 35 g and the “Increase (%) of weight” value (rats [8]; 48 h after withdrawal) was −10.2%. For the same compound, the “Weight” value (rats [8]; 48 h after withdrawal) was 257.0 ± 33 g, the “Increase (%) of weight” value (rats [8]; 60 h after withdrawal) was −10.3% and the “Weight” value (rats [8]; 60 h after withdrawal) was 256.6 ± 31 g. For the same compound, the “Increase (%) of weight” value (rats [8]; 66 h after withdrawal) was −10.5%, the “Weight” value (rats [8]; 66 h after withdrawal) was 256.0 ± 34 g and the “Increase (%) of weight” value (rats [8]; 72 h after withdrawal) was −9.0%. For the same compound, the “Weight” value (rats [8]; 72 h after withdrawal) was 260.4 ± 36 g, the “Increase (%) of weight” value (rats [8]; 84 h after withdrawal) was −6.1% and the “Weight” value (rats [8]; 84 h after withdrawal) was 268.7 ± 37 g. For the same compound, the “Increase (%) of weight” value (rats [8]; 90 h after withdrawal) was −7.5%, the “Weight” value (rats [8]; 90 h after withdrawal) was 264.7 ± 37 g and the “Increase (%) of weight” value (rats [8]; 96 h after withdrawal) was −6.0%. The “Weight” value (rats [8]; 96 h after withdrawal) was 269.0 ± 40 g, the “Increase (%) of weight” value (rats [8]; 108 h after withdrawal) was −3.0% and the “Weight” value (rats [8]; 108 h after withdrawal) was 277.6 ± 38 g. For the same compound, the “Weight” value (rats [8]; 114 h after withdrawal) was 272.9 ± 38 g, the “Increase (%) of weight” value (rats [8]; 120 h after withdrawal) was −3.8% and the “Weight” value (rats [8]; 120 h after withdrawal) was 275.4 ± 40 g. The “Increase (%) of weight” value (rats [8]; 132 h after withdrawal) was −0.5%, the “Weight” value (rats [8]; 132 h after withdrawal) was 284.6 ± 38 g and the “Increase (%) of weight” value (rats [8]; 138 h after withdrawal) was −2.4%. The “Weight” value (rats [8]; 138 h after withdrawal) was 279.3 ± 38 g, the “Increase (%) of weight” value (rats [8]; 144 h after withdrawal) was −1.5% and the “Increase (%) of weight” value (rats [8]; 156 h after withdrawal) was 1.7%. The “Weight” value (rats [8]; 156 h after withdrawal) was 291.0 ± 40 g, the “Increase (%) of weight” value (rats [8]; 162 h after withdrawal) was −0.6% and the “Weight” value (rats [8]; 162 h after withdrawal) was 284.2 ± 40 g. The “Increase (%) of weight” value (rats [8]; 168 h after withdrawal) was 0.1%, the “Weight” value (rats [8]; 168 h after withdrawal) was 286.5 ± 42 g and the “Weight” value (rats [8]; before withdraw) was 286.2 ± 40 g. The “Weight after withdrawal compared with weight one day before withdrawal” value (rats [8]; ♀, 18 h after withdrawal) was 0.98 ± 0.03, the “Weight after withdrawal compared with weight one day before withdrawal” value (rats [8]; ♀, 42 h after withdrawal) was 0.92 ± 0.02 and the “Weight after withdrawal compared with weight one day before withdrawal” value (rats [8]; ♀, 66 h after withdrawal) was 0.91 ± 0.02. For the same compound, the “Weight after withdrawal compared with weight one day before withdrawal” value (rats [8]; ♀, 90 h after withdrawal) was 0.94 ± 0.02, the “Weight after withdrawal compared with weight one day before withdrawal” value (rats [8]; ♀, 138 h after withdrawal) was 1.00 ± 0.03 and the “Weight after withdrawal compared with weight one day before withdrawal” value (rats [8]; ♀, 162 h after withdrawal) was 1.01 ± 0.03. For the same compound, the “Weight after withdrawal compared with weight one day before withdrawal” value (rats [8]; ♂, 42 h after withdrawal) was 0.91 ± 0.03, the “Weight after withdrawal compared with weight one day before withdrawal” value (rats [8]; ♂, 66 h after withdrawal) was 0.90 ± 0.03 and the “Weight after withdrawal compared with weight one day before withdrawal” value (rats [8]; ♂, 90 h after withdrawal) was 0.94 ± 0.03. The “Weight after withdrawal compared with weight one day before withdrawal” value (rats [8]; ♂, 114 h after withdrawal) was 0.97 ± 0.03, the “Weight after withdrawal compared with weight one day before withdrawal” value (rats [8]; ♂, 138 h after withdrawal) was 0.99 ± 0.04 and the “Weight after withdrawal compared with weight one day before withdrawal” value (rats [8]; ♂, 162 h after withdrawal) was 1.01 ± 0.04.
In the case of `CC(=O)Oc1ccccc1C(=O)O` [Aspirin, reference compound], the ED50 (Kunming mice) is reported as 348 mg/kg, the ED50 (rat [1]) is reported as 843 mg/kg and the ED50 (rat [9]) is reported as 2310 mg/kg. It also gave an ED50 (rat [7]) greater than 5000 mg/kg.
